# Measured values taken from ChEMBL document CHEMBL1641535, “Design and synthesis of potent macrocyclic renin inhibitors” (Bioorg Med Chem Lett, 2011).
# Experiments:
# MDCK [1] = assay: Efflux ratio of permeability from […] side of wild type MDCK2 cells; assay type: ADME, cell-based, Canis lupus familiaris; settings: dog
# MDCK [2] = assay: Efflux ratio of permeability from […] side of MDCK2 cells over expressing human Pgp; assay type: ADME, cell-based, Canis lupus familiaris; settings: dog
# Beta-secretase 1 = Beta-secretase 1 (Homo sapiens, UniProt P56817); assay: Inhibition of BACE1
# Cathepsin D = Cathepsin D (Homo sapiens, UniProt P07339); assay: Inhibition of cathepsin D
# Renin [3] = target: T1, Renin (Homo sapiens, UniProt P00797); assay: Inhibition of renin
# T1 sequence (P00797 whole entry): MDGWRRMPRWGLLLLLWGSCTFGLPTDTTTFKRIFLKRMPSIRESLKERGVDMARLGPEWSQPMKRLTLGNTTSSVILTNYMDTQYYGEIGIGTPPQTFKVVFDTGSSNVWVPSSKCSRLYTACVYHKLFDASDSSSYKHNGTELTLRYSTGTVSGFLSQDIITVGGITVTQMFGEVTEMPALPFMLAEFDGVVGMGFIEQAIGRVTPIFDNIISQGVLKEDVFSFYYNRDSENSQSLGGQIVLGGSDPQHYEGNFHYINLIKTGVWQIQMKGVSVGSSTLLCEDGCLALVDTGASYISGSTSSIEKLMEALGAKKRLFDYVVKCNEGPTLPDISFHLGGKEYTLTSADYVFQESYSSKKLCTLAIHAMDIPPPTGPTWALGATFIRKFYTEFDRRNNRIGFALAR
# [4] = Intrinsic clearance in human liver microsomes; assay type: ADME, Microsome
# Renin [5] = target: T1, Renin; assay: Inhibition of human plasma renin; assay type: cell-free
# human Pgp = assay: Apparent permeability across MDCK cells transfected with human Pgp; assay type: ADME, cell-based, Canis lupus familiaris; settings: dog, MDCK-MDR1
# [6] = Apparent permeability across wild type MDCK cells; assay type: ADME, cell-based, Canis lupus familiaris; settings: dog
# Chain of Beta-secretase 1 (P56817 whole entry): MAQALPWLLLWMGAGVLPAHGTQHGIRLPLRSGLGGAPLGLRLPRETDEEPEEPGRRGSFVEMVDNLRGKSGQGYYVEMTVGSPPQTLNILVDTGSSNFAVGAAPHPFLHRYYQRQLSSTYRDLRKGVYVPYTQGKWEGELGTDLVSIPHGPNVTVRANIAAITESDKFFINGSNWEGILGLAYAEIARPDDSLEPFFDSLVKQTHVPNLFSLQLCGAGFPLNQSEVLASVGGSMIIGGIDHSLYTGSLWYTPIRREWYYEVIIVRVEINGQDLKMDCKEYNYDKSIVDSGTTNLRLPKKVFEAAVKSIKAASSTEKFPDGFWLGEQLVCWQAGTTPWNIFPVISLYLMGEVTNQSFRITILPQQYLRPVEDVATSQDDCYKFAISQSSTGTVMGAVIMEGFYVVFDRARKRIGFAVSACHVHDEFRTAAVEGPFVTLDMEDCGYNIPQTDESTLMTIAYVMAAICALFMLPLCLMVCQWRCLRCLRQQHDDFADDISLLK
# Chain of Cathepsin D (P07339 65-162 limits assumed): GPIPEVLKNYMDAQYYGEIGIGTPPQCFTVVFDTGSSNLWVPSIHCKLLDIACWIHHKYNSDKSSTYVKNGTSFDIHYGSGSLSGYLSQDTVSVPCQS
# Chain of Cathepsin D (P07339 169-412 limits assumed): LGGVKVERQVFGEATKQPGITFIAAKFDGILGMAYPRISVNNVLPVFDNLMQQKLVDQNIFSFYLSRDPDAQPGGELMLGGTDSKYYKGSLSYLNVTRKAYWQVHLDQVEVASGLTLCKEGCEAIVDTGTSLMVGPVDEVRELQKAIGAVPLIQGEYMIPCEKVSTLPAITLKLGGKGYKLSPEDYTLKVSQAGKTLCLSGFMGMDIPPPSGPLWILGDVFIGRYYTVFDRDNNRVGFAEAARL
Compound,IC50 (Beta-secretase 1),Ki (Cathepsin D),Ki (Renin [3]),other results
COCCCOc1cc(C[C@@H](C[C@H](N)[C@@H](O)C[C@H](C(=O)NCC(C)(C)C(N)=O)C(C)C)C(C)C)ccc1OC,,,,Ratio (MDCK [1]): 0.7; Ratio (MDCK [2]): 1.5
CC(C)[C@H](C[C@H](O)[C@H](COCc1ccccc1)NC(=O)c1cc(C(=O)N[C@H](C)c2ccccc2)cc(N(C)S(C)(=O)=O)c1)C(=O)N[C@H](C(=O)NCc1ccccc1)C(C)C,0.03 µM,0.0033 µM,0.021 µM,microsomal CLint [4]: 260 µL/min/mg; IC50 (Renin [5]; read-out: IC50): 0.038 µM
CC(C)CNC(=O)[C@@H](C[C@H](O)[C@@H]1COCc2cccc(c2)C(c2ccccc2)NC(=O)c2cc(cc(N(C)S(C)(=O)=O)c2)C(=O)N1)C(C)C (some centres not stated),3.7 µM,0.2 µM,,Papp (human Pgp): 0.1 ×10⁻⁶ cm/s; Papp [6]: 0.1 ×10⁻⁶ cm/s; IC50 (Renin [5]): 0.056 µM
CNC(=O)[C@@H](C[C@H](O)[C@@H]1COCc2cccc(c2)C(c2ccccc2)NC(=O)c2cc(cc(N(C)S(C)(=O)=O)c2)C(=O)N1)C(C)C (some centres not stated),> 10 µM,1.7 µM,0.34 µM,
COCCOC1CCCc2cc(cc(N(C)S(C)(=O)=O)c2)C(=O)N[C@H]([C@@H](O)C[C@H](C(=O)NCC(C)C)C(C)C)COCc2cccc1c2 (some centres not stated),> 10 µM,> 5 µM,0.94 µM,

# The next lines start with results.
IC50 (Beta-secretase 1),Ki (Cathepsin D),Ki (Renin [3]),Compound,other results
3.1 µM,0.76 µM,0.13 µM,COc1ccc(C2NC(=O)c3cc(cc(N(C)S(C)(=O)=O)c3)C(=O)N[C@H]([C@@H](O)C[C@H](C(=O)NCC(C)C)C(C)C)COCc3cccc2c3)cc1 (some centres not stated),
1.9 µM,0.46 µM,0.45 µM,COCCCC1NC(=O)c2cc(cc(N(C)S(C)(=O)=O)c2)C(=O)N[C@H]([C@@H](O)C[C@H](C(=O)NCC(C)C)C(C)C)COCc2cccc1c2 (some centres not stated),
> 10 µM,> 5 µM,> 5 µM,COCCOC1CCc2cc(cc(N(C)S(C)(=O)=O)c2)C(=O)N[C@H]([C@@H](O)C[C@H](C(=O)NCC(C)C)C(C)C)COCc2cccc1c2 (some centres not stated),
